This is an account of results in patent US12303587B2, “Extract of Moringa peregrina seed cake, method for obtaining same and use thereof in cosmetic or nutricosmetic compositions” (AGENCE FRANCAISE POUR LE DEVELOPPEMENT D'AL ULA, priority 2020, dated 2025).

The subject of one assay is DKK-1. In words: DKK-1 synthesis and release, ELISA. The assay is classed as cell-based, human. The following applies: tested at 100 nm; p<0.01. On the procedure:
The object of this study is to evaluate the effect of the compound known as “peregrina peptide hydrolyzate” on DKK-1 synthesis and release in a model composed of normal human fibroblasts in monolayer culture.
Protocol: Human fibroblast cells were obtained from a donor. To perform the experiments, the fibroblasts were grown as a monolayer culture until confluence was reached. 100 nM dexamethasone was used as a reference inducer of DKK-1 synthesis and release.
[…] were incubated for 48 hours in the absence (control) or presence of reference product or test product: Peregrina peptide hydrolyzate: 0.01%; 0.1% and 0.5% (v/v).
At the end of the incubation, the incubation media were removed to perform the DKK-1 release measurement.
The test compound “peregrina peptide hydrolyzate” was diluted directly in the incubation medium so as to reach the various concentrations described above.
At the end of the 48-hour incubation period, the DKK-1 released into the incubation media was quantified by means of a specific sensitive ELISA kit.
At the end of the incubation period, the proteins contained in the cell lyzates were quantified by means of a spectrocolorimetric method (Bradford method).
The results are expressed as ng DKK-1 per mg of protein (mean±S.D.).

The subject of assay [1] is mouse embryo fibroblasts of the Balb/c 3T3 clone 31 line. In words: In vitro phototoxicity test 3T3 NRU. In kind it is cell-based. The following applies: BALB/c3T3, light or radiation study.
Protocol: The cytotoxicity is evaluated by determining cell viability using a vital stain: neutral red, 24 hours after treatment with the reference elements and the extract of M. peregrina according to the invention with or without UVA irradiation. […] The positive control is a chlorpromazine solution (CAS No.: 69-09-0). The negative control is a diluent for the test extract and for the reference (buffered saline solution±1% solvent). The peptide hydrolyzate was tested at eight concentrations in at least four culture wells per concentration studied, in the presence or absence of UVA. […]
The seeded plates were incubated for 24 hours at 37° C. and 5% CO2. […] The pH of the highest concentration was measured; it was between 6.5 and 7.8. […] The spectral irradiance of the test device was measured in the wavelength range from 250 to 700 nanometers with a calibrated spectroradiometer.
One of the two plates was irradiated with its cover on at room temperature, and the other plate was protected from UVA and was maintained at room temperature during the irradiation. […] The next day, the cell viability (growth, morphology, monolayer integrity) was evaluated by observations using a phase-contrast microscope. […] The absorbance values were measured at 450 nm.

In brackets after ≈: the same amount, converted by molar mass.

For the compound `C[C@@H]1C[C@H]2[C@@H]3CCC4=CC(=O)C=C[C@]4(C)[C@@]3(F)[C@@H](O)C[C@]2(C)[C@@]1(O)C(=O)CO` [dexamethasone], in the assay with DKK-1, the “increase of released DKK-1 relative to the control” value worked out at 181.8%. Broadly, the IC50 is the midpoint of a concentration-inhibition curve. `CN(C)CCCN1c2ccccc2Sc2ccc(Cl)cc21` [Chlorpromazine, chlorpromazine]: the values for the IC50 in assay [1] (in the absence of UVA) and in assay [1] (in the presence of UVA) were 7 to 90 µg/mL (≈ 22 to 282 µM) and 0.1 to 2 µg/mL, respectively.
